According to patent US20240124491A1, “METHODS AND COMPOUNDS FOR TREATING FRIEDREICH'S ATAXIA” (Design Therapeutics, Inc., priority 2021, published 2024):

Tested on: human FXN
Assay: EC50 assay: FXN mRNA expression by qRT-PCR in GM15850 cells after 48 hrs compound treatment
Assay type: cell-based
Conditions: Homo sapiens, 48 hrs incubation, hFXN expression normalized to hGAPDH (qRT-PCR), read-out: EC50 WT (nM, 48 hr)
Procedure: Cell culture: Cells were cultured in RPMI1640 medium+15% FBS. Cells were maintained at a density between 2e5/mL and 1e6/mL. Cells were centrifuged, resuspended in fresh medium, counted and plated at 150,000 cells per well in 100 uL in a non-coated, flat bottom tissue culture plate.
Compound treatment: 10 mM stock solution of FA GeneTAC was diluted 1:10 in DMSO followed by a 1:100 dilution in growth medium. Working solution was then further diluted to 10× desired final concentration of 150 nM. Compound was then diluted at a 1:3 ratio into growth medium containing 0.01% DMSO. 5-point, 3-fold dose response curve was generated. 11 μL of 1OX compound was added to wells containing 100 μL cell suspension of GM15850. 11 μL growth medium containing 0.01% DMSO was added to all wells not treated with FA GeneTAC. Cells were allowed to incubate for 48 hrs prior to cell lysis using guanidine isothiocyanate solution.
RNA isolation: Total RNA was isolated and purified in 384-well column filter plates using chaotropic salt.
qRT-PCR: qRT-PCR reactions were assembled using AgPath-ID reagents (Thermo Fisher) using 6 uL mastermix and 4 μL RNA. qRT-PCR TaqMan primer probe sets against human FXN (Assay ID Hs01075496_m1) and human GAPDH (Assay ID Hs00266705_g1) were used to measure the intended targets. qRT-PCR was run on the ThermoFisher QuantStudio 6 PRO instrument using the manufacturer's recommended cycling conditions.
Data analysis: qPCR data was analyzed using Thermo Fisher Design and Analysis software. Data was exported to Excel and hFXN expression was normalized to hGAPDH expression
A<100 nM; B is 100 nM to 500 nM; C>500 nM.

Compound	EC50
Cc1cc(F)cc(C)c1Oc1ccc(C(C)(C)O)cc1-c1cn(C)c(=O)c2[nH]c(C(=O)NC3CCN(CCOCCOCCOCCOCCOCCOCCOCCOCCNC(=O)CCNC(=O)c4nc(NC(=O)CCNC(=O)c5cc(NC(=O)c6nc(NC(=O)CCNC(=O)c7cc(NC(=O)c8nccn8C)cn7C)cn6C)cn5C)cn4C)CC3)cc12 [Compound 47]	< 100 nM
CC(=O)Nc1c(F)cc(C(=O)NC2CCN(CCOCCOCCOCCOCCOCCOCCOCCOCCNC(=O)CCNC(=O)c3nc(NC(=O)CCNC(=O)c4cc(NC(=O)c5nc(NC(=O)CCNC(=O)c6cc(NC(=O)c7nccn7C)cn6C)cn5C)cn4C)cn3C)CC2)cc1O[C@@H](C)c1ccccc1 [Compound 48]	> 500 nM
Cc1cc(F)cc(C)c1Oc1ccc(C(C)(C)O)cc1-c1cn(C)c(=O)c2[nH]c(C(=O)NCCOCCOCCOCCOCCOCCOCCOCCOCCNC(=O)CCNC(=O)c3nc(NC(=O)CCNC(=O)c4cc(NC(=O)c5nc(NC(=O)CCNC(=O)c6cc(NC(=O)c7nccn7C)cn6C)cn5C)cn4C)cn3C)cc12 [Compound 50]	< 100 nM
Cc1sc2c(c1C)C(c1ccc(Cl)cc1)=N[C@@H](CC(=O)N1CCC(N3CCN(CCOCCOCCOCCOCCOCCOCCNC(=O)CCNC(=O)c4nc(NC(=O)CCNC(=O)c5cc(NC(=O)c6nc(NC(=O)CCNC(=O)c7cc(NC(=O)c8nccn8C)cn7C)cn6C)cn5C)cn4C)CC3)CC1)c1nnc(C)n1-2 [Compound 51]	100 to 500 nM
COc1ccc2c(c1)C(c1ccc(Cl)cc1)=N[C@@H](CC(=O)N1CCC(N3CCN(CCOCCOCCOCCOCCOCCOCCNC(=O)CCNC(=O)c4nc(NC(=O)CCNC(=O)c5cc(NC(=O)c6nc(NC(=O)CCNC(=O)c7cc(NC(=O)c8nccn8C)cn7C)cn6C)cn5C)cn4C)CC3)CC1)c1nnc(C)n1-2 [Compound 52]	> 500 nM
Cc1sc2c(c1C)C(c1ccc(Cl)cc1)=N[C@@H](CC(=O)N1CCN(C3CCN(CCOCCOCCOCCOCCOCCOCCNC(=O)CCNC(=O)c4nc(NC(=O)CCNC(=O)c5cc(NC(=O)c6nc(NC(=O)CCNC(=O)c7cc(NC(=O)c8nccn8C)cn7C)cn6C)cn5C)cn4C)CC3)CC1)c1nnc(C)n1-2 [Compound 53]	100 to 500 nM
COc1ccc2c(c1)C(c1ccc(Cl)cc1)=N[C@@H](CC(=O)N1CCN(C3CCN(CCOCCOCCOCCOCCOCCOCCNC(=O)CCNC(=O)c4nc(NC(=O)CCNC(=O)c5cc(NC(=O)c6nc(NC(=O)CCNC(=O)c7cc(NC(=O)c8nccn8C)cn7C)cn6C)cn5C)cn4C)CC3)CC1)c1nnc(C)n1-2 [Compound 54]	> 500 nM
Cc1sc2c(c1C)C(c1ccc(Cl)cc1)=N[C@@H](CC(=O)N1CCC(CN3CCN(CCOCCOCCOCCOCCOCCOCCOCCNC(=O)CCNC(=O)c4nc(NC(=O)CCNC(=O)c5cc(NC(=O)c6nc(NC(=O)CCNC(=O)c7cc(NC(=O)c8nccn8C)cn7C)cn6C)cn5C)cn4C)CC3)CC1)c1nnc(C)n1-2 [Compound 55]	100 to 500 nM
COc1ccc2c(c1)C(c1ccc(Cl)cc1)=N[C@@H](CC(=O)N1CCC(CN3CCN(CCOCCOCCOCCOCCOCCOCCOCCNC(=O)CCNC(=O)c4nc(NC(=O)CCNC(=O)c5cc(NC(=O)c6nc(NC(=O)CCNC(=O)c7cc(NC(=O)c8nccn8C)cn7C)cn6C)cn5C)cn4C)CC3)CC1)c1nnc(C)n1-2 [Compound 56]	100 to 500 nM
Cc1sc2c(c1C)C(c1ccc(Cl)cc1)=N[C@@H](CC(=O)N1CCC(CN3CCN(CCOCCOCCOCCOCCOCCOCCNC(=O)CCNC(=O)c4nc(NC(=O)CCNC(=O)C5=CC(NC(=O)c6nc(NC(=O)CCNC(=O)c7cc(NC(=O)c8nccn8C)cn7C)cn6C)CN5C)cn4C)CC3)CC1)c1nnc(C)n1-2 (stereo partly shown) [Compound 57]	100 to 500 nM
COCCOCCOCCOCCOCCOCCOCCOCCOCCOCCOCCOCCOCCOCCOCCOCCC(=O)N(CC#CC#Cc1ccc(NC(=O)C[C@@H]2N=C(c3ccc(Cl)cc3)c3c(sc(C)c3C)-n3c(C)nnc32)cc1)CCOCCOCCOCCOCCOCCNC(=O)CCNC(=O)c1nc(NC(=O)CCNC(=O)c2cc(NC(=O)c3nc(NC(=O)CCNC(=O)c4cc(NC(=O)c5nccn5C)cn4C)cn3C)cn2C)cn1C [Compound 58]	100 to 500 nM
Cc1sc2c(c1C)C(c1ccc(Cl)cc1)=N[C@@H](CC(=O)N1CCC(C#CC#CC3CCN(CCOCCOCCOCCOCCNC(=O)CCNC(=O)c4nc(NC(=O)CCNC(=O)c5cc(NC(=O)c6nc(NC(=O)CCNC(=O)c7cc(NC(=O)c8nccn8C)cn7C)cn6C)cn5C)cn4C)CC3)CC1)c1nnc(C)n1-2 [Compound 60]	< 100 nM
COc1ccc2c(c1)C(c1ccc(Cl)cc1)=N[C@@H](CC(=O)N1CCC(C#CC#CC3CCN(CCOCCOCCOCCOCCNC(=O)CCNC(=O)c4nc(NC(=O)CCNC(=O)c5cc(NC(=O)c6nc(NC(=O)CCNC(=O)c7cc(NC(=O)c8nccn8C)cn7C)cn6C)cn5C)cn4C)CC3)CC1)c1nnc(C)n1-2 [Compound 61]	< 100 nM
Cc1sc2c(c1C)C(c1ccc(Cl)cc1)=N[C@@H](CC(=O)N1CC(N3CCN(CCOCCOCCOCCOCCOCCOCCNC(=O)CCNC(=O)c4nc(NC(=O)CCNC(=O)c5cc(NC(=O)c6nc(NC(=O)CCNC(=O)c7cc(NC(=O)c8nccn8C)cn7C)cn6C)cn5C)cn4C)CC3)C1)c1nnc(C)n1-2 [Compound 62]	100 to 500 nM
Cc1sc2c(c1C)C(c1ccc(Cl)cc1)=N[C@@H](CC(=O)N1CCN(C3CN(CCOCCOCCOCCOCCOCCOCCNC(=O)CCNC(=O)c4nc(NC(=O)CCNC(=O)c5cc(NC(=O)c6nc(NC(=O)CCNC(=O)c7cc(NC(=O)c8nccn8C)cn7C)cn6C)cn5C)cn4C)C3)CC1)c1nnc(C)n1-2 [Compound 63]	100 to 500 nM
Cc1sc2c(c1C)C(c1ccc(Cl)cc1)=N[C@@H](CC(=O)N1CCN(C3CCN(CCOCCOCCOCCOCCC(=O)NCCCN(CCCNC(=O)CCNC(=O)c4nc(NC(=O)CCNC(=O)c5cc(NC(=O)c6nc(NC(=O)CCNC(=O)c7cc(NC(=O)c8nccn8C)cn7C)cn6C)cn5C)cn4C)CC(F)(F)F)CC3)CC1)c1nnc(C)n1-2 [Compound 68]	< 100 nM
Cc1sc2c(c1C)C(c1ccc(Cl)cc1)=N[C@@H](CC(=O)N1CCC(N3CCN(CCOCCOCCOCCOCCC(=O)NCCCN(CCCNC(=O)CCNC(=O)c4nc(NC(=O)CCNC(=O)c5cc(NC(=O)c6nc(NC(=O)CCNC(=O)c7cc(NC(=O)c8nccn8C)cn7C)cn6C)cn5C)cn4C)CC(F)(F)F)CC3)CC1)c1nnc(C)n1-2 [Compound 69]	< 100 nM
Cc1sc2c(c1C)C(c1ccc(Cl)cc1)=N[C@@H](CC(=O)NC1CCN(CCOCCOCCOCCOCCC(=O)NC3(C(=O)NCCOCCOCCOCCNC(=O)CCNC(=O)c4nc(NC(=O)CCNC(=O)c5cc(NC(=O)c6nc(NC(=O)CCNC(=O)c7cc(NC(=O)c8nccn8C)cn7C)cn6C)cn5C)cn4C)CCNCC3)CC1)c1nnc(C)n1-2 [Compound 70]	100 to 500 nM
Cc1sc2c(c1C)C(c1ccc(Cl)cc1)=N[C@@H](CC(=O)NC1CCN(CCOCCOCCOCCC(=O)NC3(C(=O)NCCOCCOCCOCCOCCNC(=O)CCNC(=O)c4nc(NC(=O)CCNC(=O)c5cc(NC(=O)c6nc(NC(=O)CCNC(=O)c7cc(NC(=O)c8nccn8C)cn7C)cn6C)cn5C)cn4C)CCNCC3)CC1)c1nnc(C)n1-2 [Compound 71]	100 to 500 nM
Cc1sc2c(c1C)C(c1ccc(Cl)cc1)=N[C@@H](CC(=O)NC1CCN(CCOCCOCCOCCC(=O)NC3(C(=O)NCCOCCOCCOCCOCCNC(=O)CCNC(=O)c4nc(NC(=O)CCNC(=O)c5cc(NC(=O)c6nc(NC(=O)CCNC(=O)c7cc(NC(=O)c8nccn8C)cn7C)cn6C)cn5C)cn4C)CCN(CC(F)(F)F)CC3)CC1)c1nnc(C)n1-2 [Compound 73]	100 to 500 nM
COCCOCCOCCOCCOCCOCCOCCOCCOCCOCCOCCOCCOCCOCCOCCOCCC(=O)N1CCC(NC(=O)CCOCCOCCOCCN2CCC(NC(=O)C[C@@H]3N=C(c4ccc(Cl)cc4)c4c(sc(C)c4C)-n4c(C)nnc43)CC2)(C(=O)NCCOCCOCCOCCOCCNC(=O)CCNC(=O)c2nc(NC(=O)CCNC(=O)c3cc(NC(=O)c4nc(NC(=O)CCNC(=O)c5cc(NC(=O)c6nccn6C)cn5C)cn4C)cn3C)cn2C)CC1 [Compound 74]	> 500 nM
COCCOCCOCCOCCOCCOCCOCCOCCOCCOCCOCCC(=O)N1CCC(NC(=O)CCOCCOCCOCCN2CCC(NC(=O)C[C@@H]3N=C(c4ccc(Cl)cc4)c4c(sc(C)c4C)-n4c(C)nnc43)CC2)(C(=O)NCCOCCOCCOCCOCCNC(=O)CCNC(=O)c2nc(NC(=O)CCNC(=O)c3cc(NC(=O)c4nc(NC(=O)CCNC(=O)c5cc(NC(=O)c6nccn6C)cn5C)cn4C)cn3C)cn2C)CC1 [Compound 76]	100 to 500 nM
Cc1sc2c(c1C)C(c1ccc(Cl)cc1)=N[C@@H](CC(=O)N1CCC(C#CC#CCNCCOCCOCCOCCOCCOCCOCCNC(=O)CCNC(=O)c3nc(NC(=O)CCNC(=O)c4cc(NC(=O)c5nc(NC(=O)CCNC(=O)c6cc(NC(=O)c7nccn7C)cn6C)cn5C)cn4C)cn3C)CC1)c1nnc(C)n1-2 [Compound 78]	< 100 nM
Cc1sc2c(c1C)C(c1ccc(Cl)cc1)=N[C@@H](CC(=O)N1CCC(C#CC#CCNCCOCCOCCOCCOCCNC(=O)CCNC(=O)c3nc(NC(=O)CCNC(=O)c4cc(NC(=O)c5nc(NC(=O)CCNC(=O)c6cc(NC(=O)c7nccn7C)cn6C)cn5C)cn4C)cn3C)CC1)c1nnc(C)n1-2 [Compound 79]	< 100 nM
Cc1noc2c1-c1ccccc1C(c1ccc(Cl)cc1)=N[C@H]2CC(=O)Nc1ccc(C#CC#CCNC(=O)COCCOCCOCCOCCOCCNC(=O)CCNC(=O)c2nc(NC(=O)CCNC(=O)c3cc(NC(=O)c4nc(NC(=O)CCNC(=O)c5cc(NC(=O)c6nccn6C)cn5C)cn4C)cn3C)cn2C)cc1 [Compound 84]	> 500 nM
